T1: human soluble interleukin 6 receptor α-chain (hsIL6Rα) and hsgp130 (Homo sapiens, UniProt P08887)
T1 construct: human soluble interleukin 6 receptor α-chain (hsIL6Rα)
T1 sequence (P08887 20-355 limits assumed): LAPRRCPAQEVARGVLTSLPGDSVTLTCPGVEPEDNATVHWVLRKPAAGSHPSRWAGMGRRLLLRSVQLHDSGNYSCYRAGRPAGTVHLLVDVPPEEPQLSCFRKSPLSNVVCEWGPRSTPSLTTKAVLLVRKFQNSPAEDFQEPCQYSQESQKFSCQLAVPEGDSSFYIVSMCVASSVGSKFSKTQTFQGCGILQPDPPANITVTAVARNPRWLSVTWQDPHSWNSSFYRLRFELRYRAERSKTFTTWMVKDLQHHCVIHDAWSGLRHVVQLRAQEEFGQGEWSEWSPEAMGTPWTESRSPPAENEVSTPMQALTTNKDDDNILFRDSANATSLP

T2: IL-6R (Homo sapiens, UniProt P08887)
T2 construct: endogenous in cells; host or cells: human myeloma U266 cells
T2 sequence (P08887 20-468): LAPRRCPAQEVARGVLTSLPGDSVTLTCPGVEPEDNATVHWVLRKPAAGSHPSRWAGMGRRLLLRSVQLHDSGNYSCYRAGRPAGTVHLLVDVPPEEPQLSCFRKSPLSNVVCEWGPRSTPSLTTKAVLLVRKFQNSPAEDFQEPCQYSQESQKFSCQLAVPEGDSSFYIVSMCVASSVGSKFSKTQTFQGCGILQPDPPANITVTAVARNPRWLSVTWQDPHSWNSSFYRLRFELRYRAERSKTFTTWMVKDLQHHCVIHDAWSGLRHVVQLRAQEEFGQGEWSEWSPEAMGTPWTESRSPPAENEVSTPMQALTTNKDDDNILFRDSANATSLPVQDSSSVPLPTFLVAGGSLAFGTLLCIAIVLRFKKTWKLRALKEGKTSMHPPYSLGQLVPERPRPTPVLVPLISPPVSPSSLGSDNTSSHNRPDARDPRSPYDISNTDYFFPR

T3: gp130 (Homo sapiens, UniProt P40189)
T3 sequence (P40189 23-918): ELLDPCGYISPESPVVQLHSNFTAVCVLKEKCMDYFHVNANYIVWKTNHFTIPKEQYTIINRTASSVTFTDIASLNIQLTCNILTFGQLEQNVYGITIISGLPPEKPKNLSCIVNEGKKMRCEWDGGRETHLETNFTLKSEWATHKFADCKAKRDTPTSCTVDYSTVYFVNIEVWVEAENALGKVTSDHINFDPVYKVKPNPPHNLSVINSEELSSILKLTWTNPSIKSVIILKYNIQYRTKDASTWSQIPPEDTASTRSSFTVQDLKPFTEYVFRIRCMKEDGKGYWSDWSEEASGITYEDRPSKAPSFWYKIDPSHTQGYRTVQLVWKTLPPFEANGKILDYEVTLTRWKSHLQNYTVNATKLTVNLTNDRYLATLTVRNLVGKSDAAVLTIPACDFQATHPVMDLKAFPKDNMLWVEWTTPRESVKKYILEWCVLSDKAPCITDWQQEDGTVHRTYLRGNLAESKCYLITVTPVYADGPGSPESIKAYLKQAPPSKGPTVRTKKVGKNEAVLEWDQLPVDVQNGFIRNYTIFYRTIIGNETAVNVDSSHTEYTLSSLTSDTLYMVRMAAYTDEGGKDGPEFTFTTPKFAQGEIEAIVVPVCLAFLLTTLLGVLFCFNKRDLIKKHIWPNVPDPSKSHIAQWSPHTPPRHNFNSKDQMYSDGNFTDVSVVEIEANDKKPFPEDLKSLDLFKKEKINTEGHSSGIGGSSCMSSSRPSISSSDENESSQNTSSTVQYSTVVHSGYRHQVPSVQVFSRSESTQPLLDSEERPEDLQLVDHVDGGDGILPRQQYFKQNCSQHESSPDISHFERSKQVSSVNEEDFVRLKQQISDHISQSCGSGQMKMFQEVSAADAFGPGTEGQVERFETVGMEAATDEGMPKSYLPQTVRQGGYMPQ


How the values were obtained:
[1] = molecular target: T1, human soluble interleukin 6 receptor α-chain (hsIL6Rα) and hsgp130; assay: High capacity screening assay: binding of europium-labelled human IL6 to hsIL6Rα and immobilised hsgp130; conditions: Eu-IL-6 binding by time resolved fluorescence as % of control, FIG. 7A
Excerpt: Compounds designed according to the methods of the present invention may be assessed by a number of in vitro and in vivo assays of hormone function. For example, the identification of IL-6 receptor antagonists of may be undertaken using a solid-phase receptor binding assay. Potential antagonists may be screened for their ability to inhibit the binding of europium-labelled IL-6 receptor ligands to soluble, recombinant IL-6 receptor in a microplate-based format. Europium is a lanthanide fluorophore, the presence of which can be measured using time-resolved fluorometry. The sensitivity of this assay matches that achieved by radioisotopes, measurement is rapid and is performed in a microplate format to allow high-sample throughput, and the approach is gaining wide acceptance as the method of choice in the development of screens for receptor agonists/antagonists (see Apell et al., J. Biomolec. Screening 3:19-27, 1998: Inglese et al., Biochemistry 37:2372-2377, 1998).
(§1) Solid phase receptor binding assays. Ten compounds selected from Table 3 (NCI compounds) were tested for their ability to modulate the binding of europium-labelled IL-6 to soluble, recombinant IL-6 receptor (A) or the binding of europium-labelled IGF-1 to soluble, recombinant IGF-1 receptor (B) in a microplate-based format. Binding to the receptor is measured by time resolved fluorescence (TRF) as a % of control.
Ten of the compounds listed in Table 3 were tested for their ability to modulate binding of IL-6 to IL-6R/gp130. The high throughput screening assay used for this purpose detects the binding of europium-labelled human IL6 (Eu-hIL6) to human soluble interleukin 6 receptor α-chain (hsIL6Rα) and hsgp130 immobilised on the surface of wells of a microtitre plate. The protocol followed was essentially as follows: […]
The fractions were assayed for europium by diluting 10,000-fold in 200 μL of DELFIA enhancement solution and measuring europium fluorescence. […] The concentration of Eu-IL6 was determined from the absorbance at 280 nm (0.5 AU/mg/mL) and the labelling stoichiometry based on a molecular mass of 21,300. […]

[2] = molecular target: T4, soluble, recombinant IGF-1 receptor (Homo sapiens, UniProt P08069); assay: Solid phase receptor binding assay, IGF-1R/IGF-1 system (specificity); conditions: Eu-IGF-1 binding to IGF-1 receptor, FIG. 7B
T4 construct: soluble, recombinant IGF-1 receptor
T4 sequence (P08069 31-736): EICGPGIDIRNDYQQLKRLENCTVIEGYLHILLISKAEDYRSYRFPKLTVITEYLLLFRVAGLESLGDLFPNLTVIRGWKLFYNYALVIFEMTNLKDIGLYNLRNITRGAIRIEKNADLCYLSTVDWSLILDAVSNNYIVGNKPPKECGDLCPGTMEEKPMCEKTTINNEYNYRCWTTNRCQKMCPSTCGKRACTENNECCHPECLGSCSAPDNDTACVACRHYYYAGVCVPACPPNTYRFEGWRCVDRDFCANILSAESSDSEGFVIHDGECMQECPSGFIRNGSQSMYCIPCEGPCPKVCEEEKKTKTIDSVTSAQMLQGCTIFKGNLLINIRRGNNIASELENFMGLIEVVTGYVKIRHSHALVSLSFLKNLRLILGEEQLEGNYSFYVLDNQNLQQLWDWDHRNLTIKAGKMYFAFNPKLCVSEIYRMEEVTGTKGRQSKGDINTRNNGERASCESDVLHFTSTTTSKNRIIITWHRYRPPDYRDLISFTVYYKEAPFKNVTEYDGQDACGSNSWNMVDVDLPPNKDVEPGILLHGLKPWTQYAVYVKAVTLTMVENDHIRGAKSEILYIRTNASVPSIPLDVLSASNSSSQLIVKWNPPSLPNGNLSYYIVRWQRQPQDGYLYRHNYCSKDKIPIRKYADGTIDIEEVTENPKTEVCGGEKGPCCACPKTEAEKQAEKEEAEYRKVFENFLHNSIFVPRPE
T4 sequence (P08069 741-935): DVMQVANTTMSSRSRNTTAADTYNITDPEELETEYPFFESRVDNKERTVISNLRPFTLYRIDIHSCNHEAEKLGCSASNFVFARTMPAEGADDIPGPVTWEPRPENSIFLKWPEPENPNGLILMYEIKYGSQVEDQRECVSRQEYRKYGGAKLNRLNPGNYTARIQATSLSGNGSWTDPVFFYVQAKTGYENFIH
Description: as §1
In order to examine specificity, the compounds were also assayed against the IGF receptor system in an identical manner.

IL-6R = molecular target: T2, IL-6R; conditions: human myeloma U266 cells, low-affinity binding; cited from earlier work
gp130 [3] = molecular target: T3, gp130; set-up: endogenous in cells; host or cells: human myeloma U266 cells; conditions: human myeloma U266 cells, high-affinity binding; read-out: affinity of IL-6/IL-6R complex for gp130; cited from earlier work
gp130 [4] = molecular target: T3, gp130; conditions: IL-6R N-D mutant; cited from earlier work
IL-6 = IL-6 binding of IL-6R mutant, relative to wild type; cited from earlier work

effect on IL-6 binding to IL-6R/gp130 (antagonist or agonist) [1] | specificity against the IGF-1R/IGF-1 system [2] | Molecule | further results
agonists | specifically | O=C(O)c1ccccc1C(=O)Nc1cc2c(cc1Br)-c1ccccc1C2=O [compound 56681, 2-(((3-bromo-9-oxo-9H-fluoren-2-yl)amino)carbonyl)benzoic acid] | 
 |  | IL-6: multifunctional cytokine, natural ligand of the IL-6 receptor | Kd (IL-6R): ~1 nM
antagonist | specifically | Nc1c(C(=O)Nc2ccc3c(c2)C(=O)c2ccccc2C3=O)ccc2c1C(=O)c1ccccc1C2=O [compound 39914, 1-amino-N-(9,10-dioxo-9,10-dihydro-2-anthracenyl)-9,10-dioxo-9,10-dihydro-2-anthracenecarboxamide] | 
 |  | IL-6/IL-6R complex: complex of IL-6 with the ligand binding α-chain receptor IL-6R | Kd (gp130 [3]): ~0.01 nM
 |  | N211: IL-6R N-D mutant at N211 (protein, UniProt P08887 20-468, looked up, variant N211D) Interleukin-6 receptor …: LAPRRCPAQEVARGVLTSLPGDSVTLTCPGVEPEDNATVHWVLRKPAAGSHPSRWAGMGRRLLLRSVQLHDSGNYSCYRAGRPAGTVHLLVDVPPEEPQLSCFRKSPLSNVVCEWGPRSTPSLTTKAVLLVRKFQNSPAEDFQEPCQYSQESQKFSCQLAVPEGDSSFYIVSMCVASSVGSKFSKTQTFQGCGILQPDPPANITVTAVARDPRWLSVTWQDPHSWNSSFYRLRFELRYRAERSKTFTTWMVKDLQHHCVIHDAWSGLRHVVQLRAQEEFGQGEWSEWSPEAMGTPWTESRSPPAENEVSTPMQALTTNKDDDNILFRDSANATSLPVQDSSSVPLPTFLVAGGSLAFGTLLCIAIVLRFKKTWKLRALKEGKTSMHPPYSLGQLVPERPRPTPVLVPLISPPVSPSSLGSDNTSSHNRPDARDPRSPYDISNTDYFFPR | binding to gp130 (gp130 [4]): N-D mutant, <10% binding to gp130; Binding (IL-6): 75%

Molecule | effect on IL-6 binding to IL-6R/gp130 (antagonist or agonist) [1] | specificity against the IGF-1R/IGF-1 system [2] | further results
O=C(C[n+]1ccc2ccccc2c1)c1ccc(-c2ccccc2)cc1 [compound 17791, 1-[1,1′-biphenyl]-4-yl-2-(2^5-isoquinolin-2-yl)ethanone] | agonists | specifically | 
